# *1 amine or outer side, *2 acyl side, *3 side chain or, on linkers, in order; H or OH if unused. Where a SMILES comes first, the peptide text is derived from it. Bridges are numbered along the chain shown (N, C = ends). Roman numbers before positions name the chains, in order. [ ]: non-standard residue; d: D form. Actinocin(9to1) = Cc1c2oc3c(C)ccc(C(=O)[*:1])c3nc-2c(C(=O)[*:2])c(N)c1=O; NMeV = CN[C@H](C(=O)O)C(C)C; Sar = CNCC(=O)O
# Legend:
# Assay type in all cases: cell-based
# HL60 cells = assay: Chemosensitivity of HL60 cells, accumulated caspase activity; conditions: promyeloic HL60 cells
# Experimental: (§1) This object is achieved by a method for determining the chemosensitivity of cells towards at least one substance by measuring the apoptosis induced by said at least one substance, wherein the apoptosis is determined from the accumulated caspase activity of a sample comprising cells and a medium by adding said at least one substance to the sample followed by incubation, and measuring the accumulated caspase activity in the sample upon disruption of the cells without previously separating off the cells. In particular, the method according to the invention permits the use of substrates which are hardly cell-permeating or not cell-permeating at all.
# It is essential that the accumulated caspase activity is measured. In this approach, cells, e.g., tumor cells of a patient, are incubated with at least one substance (e.g., cytostatic agent) for an extended period of time so that all effective pharmaceuticals, even the slowly acting, have had enough time to induce apoptosis. Subsequently, for example, a substrate present in a lysis buffer is added, and after the cell lysis has been effected, the total caspase activity formed, i.e., the accumulated activity, of the cellular suspension is measured. […] The conventionally determined (with a washing step) caspase activity increases at the same rate as the accumulated caspase activity, but decreases when the secondary necrosis begins (see FIG. 1). Thus, the principle of measuring the accumulated caspase activity permits to detect the effect of substances on the cells by a single caspase activity measurement. This test has a low need of cells and can be performed as a routine test by laboratory or technical assistants within a short time. Due to the easy automation, the personnel expenditure for performing the test is low. Since the test can be performed on ELISA reading devices, which are available everywhere, no investment in equipment is necessary. Miniaturization is possible to further reduce the consumption of materials. It could be shown that cells can be kept in culture for some days in less than 10 μl of medium. […]
# The caspase activity of 250 000 Jurkat cells in 100 μl of medium was determined after different incubation times with 1 μg/ml actinomycin D both conventionally and according to the method of accumulated caspase activity according to the invention. […] The accumulated caspase activity was determined by mixing 100 μl of the cells incubated with actinomycin D, directly in suspension, with 100 μl of 2× lysis buffer. […] At room temperature, the release of fluorescent aminocoumarin by caspase was monitored every 5 min over a period of 2 h. From the linear increase of the signal, the slope was calculated as a measure of caspase activity. […]
# [1] = tested on: isolated cells from the peripheral blood (PBMNC) of healthy volunteers; assay: Chemosensitivity of PBMNC, caspase activity; conditions: PBMNC of healthy subjects; for concentration by which caspase activity can be induced: average from three independent experiments
# Experimental: as §1
# (§2) It is essential that the accumulated caspase activity is measured. In this approach, cells, e.g., tumor cells of a patient, are incubated with at least one substance (e.g., cytostatic agent) for an extended period of time so that all effective pharmaceuticals, even the slowly acting, have had enough time to induce apoptosis. Subsequently, for example, a substrate present in a lysis buffer is added, and after the cell lysis has been effected, the total caspase activity formed, i.e., the accumulated activity, of the cellular suspension is measured. […] The conventionally determined (with a washing step) caspase activity increases at the same rate as the accumulated caspase activity, but decreases when the secondary necrosis begins (see FIG. 1). Thus, the principle of measuring the accumulated caspase activity permits to detect the effect of substances on the cells by a single caspase activity measurement. This test has a low need of cells and can be performed as a routine test by laboratory or technical assistants within a short time. Due to the easy automation, the personnel expenditure for performing the test is low. Since the test can be performed on ELISA reading devices, which are available everywhere, no investment in equipment is necessary. Miniaturization is possible to further reduce the consumption of materials. It could be shown that cells can be kept in culture for some days in less than 10 μl of medium. The reduction of the number of cells per sample compartment […] per test enables highly parallel analyses of samples with extremely few cells from patients, e.g., from fine needle biopsies. The low need of cells also permits the high throughput screening (HTS) of unknown substances for anti-tumor activity.
# For establishing the test for peripheral blood or bone marrow, isolated cells from the peripheral blood (PBMNC) of healthy volunteers were tested first, taking care that acute infections, as frequently encountered in the fall/winter season, could be excluded. FIGS. 5 and 6 illustrate the results of the studies with two cytostatic agents.
# As compared to tested leukemia cell lines, the PBMNCs respond later to daunorubicin.
# U937 cells = assay: Chemosensitivity of U937 cells, accumulated caspase activity; conditions: cell line U937, FIG. 3; for effectiveness (apoptosis induction) as concentration increases: average from three independent experiments
# Experimental: as §1, §2
# The caspase activity of 250 000 Jurkat cells in 100 μl of medium was determined after different incubation times with 1 μg/ml actinomycin D both conventionally and according to the method of accumulated caspase activity according to the invention. Thus, 100 μl of Jurkat cells (2.5×10^6/ml) was incubated in the presence of actinomycin D at 5% CO2 and 37° C. in RPMI medium with 10% FCS and Pen/Strep. After the incubation, the cells were centrifuged by a conventional method and washed with PBS. The pellet was resuspended in 200 μl of lysis buffer, incubated on ice for 10 min and frozen at −20° C. The accumulated caspase activity was determined by mixing 100 μl of the cells incubated with actinomycin D, directly in suspension, with 100 μl of 2× lysis buffer. The lysate was also frozen at −20° C. All lysates were simultaneously thawed, and aminocoumarin-DEVD was added. At room temperature, the release of fluorescent aminocoumarin by caspase was monitored every 5 min over a period of 2 h. From the linear increase of the signal, the slope was calculated as a measure of caspase activity. The spontaneous caspase activities of the Jurkat cells in the absence of actinomycin D, not shown in the Figure, increase with time, but remain lower than 4 min^−1.
# The chemosensitivities of U937 and HL60 cells towards the cytostatic agents indicated in FIGS. 3 and 4 were tested in the stated concentration ranges.
# The effect of four cytostatic agents on the cell line U937 was tested. Each data point represents the average from three independent experiments.
smiles,measurement,setting,value
"Nc1ccn([C@@H]2O[C@H](CO)[C@@H](O)[C@@H]2O)c(=O)n1 [Ara-C, cytosine arabinoside (Ara-C)]",maximum inducible caspase activity reached at the highest concentration measured,HL60 cells,appears not yet to have reached the maximum caspase activity
same,plateau (unchanging maximum caspase activity),[1],not reached for any of the tested PBMNCs
same,concentration by which caspase activity can be induced,[1],> 200 ng/mL
same,maximum inducible caspase activity,U937 cells,relatively low
same,effectiveness (apoptosis induction) as concentration increases,U937 cells,also increases
"Cc1c2oc3c(C)ccc(C(=O)N[C@@H]4C(=O)N[C@H](C(C)C)C(=O)N5CCC[C@H]5C(=O)N(C)CC(=O)N(C)[C@@H](C(C)C)C(=O)O[C@@H]4C)c3nc-2c(C(=O)N[C@@H]2C(=O)N[C@H](C(C)C)C(=O)N3CCC[C@H]3C(=O)N(C)CC(=O)N(C)[C@@H](C(C)C)C(=O)O[C@@H]2C)c(N)c1=O [actinomycin D] (I: T[dV]P[Sar][NMeV] / II: T[dV]P[Sar][NMeV]; ester I:1-I:C, II:1-II:C; linker I:N-II:N via Actinocin(9to1))",induced caspase activities (comparison between agents),HL60 cells,higher caspase activities than Ara-C and prednisolone
same,maximum inducible caspase activity,U937 cells,highest
same,effectiveness (apoptosis induction) as concentration increases,U937 cells,also increases
COc1cccc2c1C(=O)c1c(O)c3c(c(O)c1C2=O)C[C@@](O)(C(C)=O)C[C@@H]3O[C@H]1C[C@H](N)[C@H](O)[C@H](C)O1 [daunorubicin],induced caspase activities (comparison between agents),HL60 cells,higher caspase activities than Ara-C and prednisolone
same,plateau (unchanging maximum caspase activity),[1],"not reached for the subjects NP1 and NP5 to NP8, and only roughly so for the subjects NP2 to NP4"
same,response compared to tested leukemia cell lines,[1],respond later
same,concentration by which caspase activity can be induced,[1],> 50 ng/mL
same,maximum inducible caspase activity,U937 cells,significantly higher
same,effectiveness (apoptosis induction) as concentration increases,U937 cells,also increases
C[C@]12C=CC(=O)C=C1CC[C@@H]1[C@@H]2[C@@H](O)C[C@@]2(C)[C@H]1CC[C@]2(O)C(=O)CO [prednisolone],concentration at maximum in caspase activity,HL60 cells; apoptosis signal decreases at higher concentrations,about 700 ng/ml
same,effectiveness (apoptosis induction) as concentration increases,U937 cells,no or but a slight apoptosis induction

# From patent publication US20050260555A1, “Chemosensitivity measurement using caspase activity” (Evotec Analytical Systems GmbH, priority 1999, published 2005)
